Values joined by “and” are separate entries in the source; they are usually repeats but may differ in a detail not shown here. Equal entries are not always repeated. Where two headings read alike, the source gives them in different places.
How the values were obtained:
Format in all cases: cell-based
C2C12 cells = test: C2C12 myogenic assay; parameters: key to myogenic assay: + indicates that the compound had an effect; -: − indicates that there was no significant effect in the respective assay; key to mean fusion index: ratio of nuclei fused per area to total nuclei in field; details: for MYH4 (MFI) / fusion index, % of DMSO control: Fig. 5, equals mean of the two '% of control' values of the 4th table; for mean MFI / ratio MFI/MBI: MYH4; for ratio MFI/MBI / ratio nuclei %: single images; for myogenic diff.: overview in comparison to compound C, Supplemental Fig. 9; for myogenic assay: summary Fig. 8E
Text: To corroborate their status as Notch inhibitors, we tested four of the five compounds (A, C, D, E) in an orthogonal assay for Notch function. Notch signalling plays an important role in myogenic differentiation, and blocking Notch signalling promotes myogenic differentiation in the myoblast cell line C2C12[27] (Fig. 5A). C2C12 cells can be maintained as myoblasts but upon serum starvation spontaneously differentiate to MYH4-positive multinucleated myotubes, a process which is accelerated by Notch blockade.
8000 C2C12 cells were seeded on gelatin (0.1%, Sigma-Aldrich, cat #G2500) coated cover slides (BD Bioscience) and cultivated in proliferation medium. For gelatin coating, 8-well cover slide chambers (BD Bioscience) were incubated for 60 min with 0.1% gelatin in PBS. The remaining liquid was aspirated, and gelatin was allowed to dry for 24 h. Cover slides were stored at 4 °C until use. Upon reaching 85% confluence cell culture medium was exchanged to differentiation medium to enhance differentiation into myocytes/myotubes. Cells were then treated with 10 µM of the respective compound for five days and DMSO-treated cells served as a base-line control. Next, cells were washed with 1 × cold PBS (ThermoFisher, cat #10010023) fixed with 4% paraformaldehyde (PFA, Sigma-Aldrich, cat #1.00496) in PBS for 10 min at room temperature and washed again with 1 × PBS. Fixed cells were either stored at 4 °C in PBS or directly processed for immunocytochemistry staining: For immunocytochemistry, cells were permeabilized for 10 min in 0.1% TritonX-100 / PBS, then washed in PBS and unspecific bindings sites were blocked in protein free blocking solution (DAKO, cat # × 0909) for 30 min at room temperature, followed by two times washing in PBS. Then, cells were incubated with primary antibody MYH4 (ThermoFisher) in blocking solution and 0.1% TritonX-100 in PBS for 1 h at room temperature. Next, cells were washed three times in PBS and incubated with secondary Alexa fluorophore coupled antibody (Invitrogen) in a 1:400 dilution. Labeling of F-actin filaments was conducted by phalloidin-TRITC (Sigma-Aldrich, cat # P1951) in a 1:2500 dilution. Cells were washed three times in PBS and incubated with DAPI (BD Bioscience cat # 564907) for 5 min at room temperature to stain DNA/nuclei. Finally, slides were fixed with mounting medium (ProLong Antifade mounting medium, ThermoFisher, cat #P36934). Bright field and immunocytochemistry images were taken using the SP8 LSM (Leica) at different magnifications and images were recorded as Z-stacks. Images were processed using the FijI (ImageJ) software. As controls, wells with and without differentiation medium were also stained to set the baseline and contrast the differences and stainings of cells with only secondary antibodies were used as negative controls to assess cross-reactivity and background staining. For calculating the MYH4 median fluorescence intensity (MFI) images have been converted into 8-bit greyscale and a standard color threshold was applied (ImageJ). Next, MFI signals per area were measured using ImageJ and divided by the median background intensity (MBI). The nuclei fusion index was calculated as the ratio of nuclei fused per area divided by the total number of nuclei in the field. A minimum of three images has been recorded for the calculations, and two replicate experiments were conducted. For calculations of MFI and fusion index see Supplemental Table 5.

γ-secretase complex = γ-secretase complex (Homo sapiens, UniProt P49768); test: APP-C99 counter assay (GSI reporter assay); parameters: AUC APP: scale not given here; details: for remaining activity at 10 µM / activity at 10 µM / remaining activity at 25 µM / remaining activity at […]: 24 h; for remaining activity at 10 µM / remaining activity at 25 µM / remaining activity at […]: APP-C99 counter assay, read-out: 3p-DR in % of DMSO counter; for activity at 10 µM: sheet conf vs counter 10 µM, read-out: Counter screen (Hek APP-C99); for remaining activity at […]: 1,25µM; for AUC APP: area under the 14-point dose-response curve, replicates averaged; for AUC 9p APP-counter assay / AUC. 14p APP-counter assay: AUCs averaged when replicates available; for APP assay: overview in comparison to compound C, Supplemental Fig. 9
How it was run: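 γ-secretase activity reported via APP cleavage driving firefly luciferase, normalized to renilla. After 24 h transfection then 24 h compound exposure, signals were read (0.1 s integration). Triplicate dose–responses fitted by variable-slope four-parameter model for IC50; area under curve also derived.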

NOTCH1 = test: Western blot analysis of S3-cleaved NOTCH1 (a-N1-V1744); details: for V1744 (activated N1) band intensity / V1744 normalised to beta-actin signals / V1744, DMSO as reference: Western blot quantification, Supplemental Figure 4K; for V1744, DMSO as reference: DMSO = 1
Method: Cells were washed in ice-cold PBS and incubated for 30 min on ice with RIPA cell lysis buffer (Thermofisher, cat #89900) containing protease and phosphatase inhibitors (Thermofisher, cat #78442), scraped off and homogenized using a 25G syringe, and subsequently centrifugated for 10 min at > 13,000xg. […] After electrophoresis, gels were placed directly onto a TransBlot Turbo PVDF or nitrocellulose membrane (Bio-rad, cat #1704157 and cat #1704159) and transferred using the “HIGH MW” protocol (Bio-Rad). Subsequently, membranes were blocked for 1 h at room temperature using Clear Milk Blocking Buffer (ThermoFisher, cat #37587) supplemented with 0.1% Tween20 (Sigma-Aldrich, cat #P1379). Detection of antibody binding was performed by using Clarity Western ECL-Substrate (Bio-rad, cat #1705060S). Beta-Actin protein signals were used as a loading control. Western blot membranes were in some experiments stripped after development (indicated in the figure in each respective case) by washing the membranes twice for 10 min in PBS, followed by incubation in membranes in western blot stripping buffer (ThermoFisher, cat #21059) for 30 min at room temperature and gentle agitation. Stripped membranes were washed twice with PBS and incubated for 30 min in blocking buffer before incubation with primary antibody. A list of all antibodies used in this study is provided in Supplemental Table 6. Uncropped western blot images are provided in […]. Protein expression levels of western blot bands were quantified using Fiji (V.2.16) with beta-Actin signals for normalisation (Supplemental Table 8). Uncropped western blot images are provided in Supplemental Fig. 10.

[1] = 10 µM, five days, DMSO ctrl = 100, experiments #1 and #2
[2] = 10 µM, five days, experiments #1 and #2
[3] = 14p APP assay DR, bottom constrained to Emax of positive control LY-411575
[4] = 10 µM, five days, experiments #1 and #2, listed as GSI

Structure (SMILES) | Hill-slope (γ-secretase complex; [3]) | remaining activity at 10 µM (γ-secretase complex) [%] | remaining activity at 25 µM (γ-secretase complex) [%] | remaining activity at […] (γ-secretase complex) [%] | AUC APP (γ-secretase complex) | expression of the differentiation marker MYH4 (C2C12 cells; 10 µM, five days) | mean MFI in % of control (C2C12 cells; [1]) | MYH4 (MFI) (C2C12 cells; 10 µM, five days) | fusion index, % of DMSO control (C2C12 cells; 10 µM, five days) | mean MFI (C2C12 cells; [2]) | ratio MFI/MBI (C2C12 cells; [2]) | mean fusion index (C2C12 cells; [2]) | ratio nuclei % (C2C12 cells; [2]) | myogenic assay (C2C12 cells) | V1744 (activated N1) band intensity (NOTCH1) | V1744 normalised to beta-actin signals (NOTCH1) | V1744, DMSO as reference (NOTCH1) | also measured
COc1cccc(CNc2ccc(N3CCCCC3)cc2)c1OCc1cccs1 [compound C] | 0.0377 | 150 | 152 | 157 | 731.3 | elevated expression | 343.9 % of control and 318.1 % of control | 331.0 | 268.7 | 4.2 | 4.0 and 4.4 | 5.3 | 3.3% and 7.3% | + | 14466.8 | 0.8 | 0.5945 | myogenic diff. (C2C12 cells): yes; activity at 10 µM (γ-secretase complex): 150%
C[C@H](NC(=O)Cc1cc(F)cc(F)c1)C(=O)N[C@H](C(=O)OC(C)(C)C)c1ccccc1 [DAPT, reference compound] |  |  |  |  | 580.4 |  |  |  |  |  |  |  |  |  |  |  |  | Hill-Slope 9p APP counter assay averaged (γ-secretase complex; 9p dose response): -2.8; AUC 9p APP-counter assay (γ-secretase complex; 9p dose response): 3.64E+02; IC50 (γ-secretase complex; 9p dose response, averaged, read-out: 9p APP counter assay averaged IC50s): 2.5 µM; 9p APP counter assay averaged IC50s (log) (γ-secretase complex; 9p dose response, log10 of averaged IC50): -5.6; IC50 (γ-secretase complex; 9p dose response, read-out: approximated IC50s 9p APP counter assay): 2.5 µM; IC50 (γ-secretase complex; 14-point, unit inferred, some fits outside of tested concentration range, read-out: approximated IC50s 14p APP-counter assay): 0.4 µM; curve fit information (γ-secretase complex; 14p APP assay DR, Notch inhibitor controls, no bottom constraint named): IC50 indeterminate; IC50 (γ-secretase complex; 14p APP assay DR, Notch inhibitor controls, no bottom constraint named, read-out: approximated IC50): 5.2 µM; IC50 (γ-secretase complex; 14p dose response, single replicates, read-out: approximated IC50s 14p APP counter assay averaged): 5.2 µM; AUC. 14p APP-counter assay (γ-secretase complex; 14p dose response): 5.80E+02; IC50 (γ-secretase complex; 14p dose response, averaged over replicates, read-out: 14p APP counter assay averaged IC50s): 5.2 µM; APP assay (γ-secretase complex): higher potency; S3-processing of Notch1ΔE (Western blot) (NOTCH1; clone A (#A1-11), Fig. 1F): almost completely abolished
Cc1ccc2[nH]c3c(c2c1)CCOC31CCN(Cc2ccccc2-c2ccccc2)CC1 [compound B] |  | 113 | 149 | 100 | 643.8 |  |  |  |  |  |  |  |  | - | 10802.4 | 0.6 | 0.4585 | 

Second part, led by results:

Hill-slope (γ-secretase complex; [3]) | remaining activity at 10 µM (γ-secretase complex) [%] | remaining activity at 25 µM (γ-secretase complex) [%] | remaining activity at […] (γ-secretase complex) [%] | AUC APP (γ-secretase complex) | Structure (SMILES) | expression of the differentiation marker MYH4 (C2C12 cells; 10 µM, five days) | mean MFI in % of control (C2C12 cells; [1]) | MYH4 (MFI) (C2C12 cells; 10 µM, five days) | fusion index, % of DMSO control (C2C12 cells; 10 µM, five days) | mean MFI (C2C12 cells; [2]) | ratio MFI/MBI (C2C12 cells; [2]) | mean fusion index (C2C12 cells; [2]) | ratio nuclei % (C2C12 cells; [2]) | myogenic assay (C2C12 cells) | V1744 (activated N1) band intensity (NOTCH1) | V1744 normalised to beta-actin signals (NOTCH1) | V1744, DMSO as reference (NOTCH1) | also measured
-1.6 | 71.4 | 62.2 | 75.7 | 658.8 | CCc1c(C(=O)N(C)Cc2cnn(C(C)C)c2)[nH]c2ccccc12 [compound A] | elevated expression | 469.2 % of control | 476.6 | 210.8 | 7.4 and 5.9 | 6.1 and 6.4 and 7.3 and 7.5 and 5.2 | 4.1 and 7.3 | 2.9% and 4.4% and 7.7% and 8.1% and 6.0% and 5.0% | + | 20296.9 | 1.0 | 0.806 | activity at 10 µM (C2C12 cells; Mus musculus, C2C12, 120 h, 10 µM, five days, DMSO ctrl = 100, experiments #1 and #2, read-out: mean MFI in % of control): 484%; effect in the APP assay (γ-secretase complex; 14-point dose-response, Supplemental Fig. 4J): showed an inhibitory effect at high concentrations; Hill-slope (γ-secretase complex; 14p APP assay DR, bottom constrained to Emax of positive control CB-103): -1.6; activity at 10 µM (γ-secretase complex): 71.3%
 |  |  |  | 527.4 | CC(C)(C(=O)NCC(F)(F)C(F)(F)F)C(=O)N[C@@H]1C(=O)Nc2ccccc2-c2ccccc21 [RO4929097, reference compound] | elevated expression |  |  |  |  |  |  |  |  | 4624.07 | 0.211 | 0.1638 | mean MFI in % of control (C2C12 cells; 10 µM, five days, DMSO ctrl = 100, experiments #1 and #2, listed as GSI): 296.5 % of control and 351.1 % of control; mean MFI (C2C12 cells; [4]): 5.5 and 3.6; mean fusion index (C2C12 cells; [4]): 6.7 and 4.2; ratio nuclei % (C2C12 cells; [4]): 6.3% and 6.4% and 7.6% and 4.9% and 3.4%; myogenic diff. (C2C12 cells): yes; Hill-Slope 9p APP counter assay averaged (γ-secretase complex; 9p dose response): -1.5; AUC 9p APP-counter assay (γ-secretase complex; 9p dose response): 2.88E+02; AUC. 14p APP-counter assay (γ-secretase complex; 14p dose response): 5.27E+02; APP assay (γ-secretase complex): higher potency
 | 119 | 134 | 78 | 449.6 | NC(=O)c1c(NC(=O)NCc2cccnc2)sc2c1CCC2 [compound D] | did not produce elevated MYH4 levels |  | 108.7 | 153.2 |  |  |  |  | - | 30696.5 | 1.2 | 0.9101 | Hill-slope (γ-secretase complex; 14p APP assay DR, bottom constrained to Emax of positive control LY-411575, listed as CBK307578): 0.0595
-0.00246 | 80.7 | 81.7 | 83.7 | 684.1 | Cc1nn(-c2nc3ccccc3s2)c(O)c1C1OC(=O)c2ccccc21 (stereo not drawn) [compound E] | elevated expression | 561.7 % of control and 394.0 % of control | 477.8 | 290.1 | 6.9 and 6.2 | 6.3 and 6.7 and 7.6 and 5.1 and 6.8 | 6.2 and 7.6 | 5.9% and 6.4% and 6.2% and 7.9% and 6.8% and 8.0% | + | 44303.5 | 1.9 | 1.451 | 

Source: article PMC13242511, “Disrupting Notch signalling by a small molecule inhibiting dihydroorotate dehydrogenase activity” (Scientific Reports, 2026)
